The values below come from patent publication US8846758B2, “Methods of decreasing glycosylated hemoglobin in patients with dyslipidemia” (TWi Biotechnology, Inc., priority 2011, dated 2014).

In series [1] the test system is patients with type 2 diabetes mellitus inadequately controlled by previous antidiabetic therapy. Description: Randomized, double-blind, placebo-controlled study of diacerin in uncontrolled type 2 diabetes mellitus: HbA1c. Format: in vivo, human. From the text: To evaluate the efficacy and safety of diacerin for the treatment of type 2 diabetes mellitus (DM).
To compare the efficacy of add-on diacerin with no add-on treatment (placebo) on HbA1c after 24-week double-blind treatment in Type 2 DM patients inadequately controlled by previous antidiabetic therapy.
Male or female patients (BMI≦35 kg/m^2) with type 2 diabetes mellitus on a stable oral hypoglycemic monotherapy for at least 3 months prior to screening visit. The HbA1c measurements taken at screening visit must be between 7% and 12%. Patients enrolled in the study must be receiving one or more oral antihyperglycemic agents including sulfonylurea, biguanides, alpha-glucosidase inhibitors, thiazolidinediones, and nonsulfonylurea insulin secretagogues.
(§1) This was a prospective, randomized, double-blind, and parallel comparison study comparing diacerin 50 mg versus placebo in patients with type 2 diabetes mellitus inadequately controlled by previous antidiabetic therapy. The starting dose of diacerin was 50 mg once daily every morning for 4 weeks and could be adjusted up to 50 mg twice daily (morning and evening) if patients have become accustomed to the medication. Patients were screened for eligibility four weeks (week—4) prior to entry at baseline (week 0). During this 4-week screening period, the participants continued their previous antidiabetic therapy, dietary habits, and other lifestyle habits. In order to be eligible for randomization following the 4-week screening period, patients must not have experienced hypoglycemia and must have had two fasting plasma glucose (FPG) measurements of between 135 to 250 mg/dL. At the end of the screening period, patients who met eligibility requirements were randomly assigned to receive diacerin 50 mg or placebo twice a day for 24 weeks observation. During treatment/observation period, the previous antidiabetic therapy including the class and/or dosage was not changed. Patients were asked to attend the center on eight occasions (screening, baseline, week 4, 8, 12, 16, 20 and 24) during the trial. The total study duration including the screening period for each patient was 28 weeks. There was a two weeks long follow-up period after completion of the treatment/observation. During this follow-up period, patients were followed for adverse events.
The difference (diacerin vs. placebo) of HbA1c reduction between the two treatment groups was analyzed by analysis of covariance (ANCOVA) with baseline value as a covariate. The corresponding 95% confidence interval was calculated. Within-group changes were also analyzed, with paired t test used to evaluate differences from baseline in each treatment group.
For the efficacy parameters, descriptive statistics were presented by visit. Statistical analysis was performed to assess the mean change from baseline. The area under the concentration-time curve (AUC) was used for evaluating the parameters measured by oral glucose tolerance test.
A dyslipidemia sub-group was assembled, wherein subjects had the following baseline levels: a) plasma cholesterol levels greater than 200 mg/dl, or b) plasma triglyceride levels greater than 150 mg/dl, or c) plasma LDL levels greater than 100 mg/dl. The effects of administering […] to the patients in this dyslipidemia sub-group were analyzed by paired t-test compared with the placebo group.
Subjects (n=76) were randomized in a 1:1 ratio to receive twice-daily diacerin 50 mg (n=38), or placebo (n=38) for 24 weeks. 26 subjects in the diacerin group finished the whole treatment period. Within these 26 subjects, there were 16 subjects with plasma cholesterol levels greater than 200 mg/dl, or plasma triglyceride levels greater than 150 mg/dl, or plasma LDL levels greater than 100 mg/dl at baseline respectively. Plasma cholesterol, triglyceride and LDL levels in the other 10 subjects were normal in the baseline. Thus, there were 16 subjects in the dyslipidemia subgroup.

A short description of series [2]: Same study: body weight and lipid profiles. It is filed as in vivo, human. The conditions noted are these: diacerin 50 mg twice daily, 24 weeks. The procedure:
as §1, with “Patients were asked to attend the center on eight occasions (screening, baseline, week 4, 8, 12, 16, 20 and 24) during the trial. The total study duration including the screening period for each patient was 28 weeks. There was a two weeks long follow-up period after completion of the treatment/observation. During this follow-up period, patients were followed for adverse events.” left out
For the efficacy parameters, descriptive statistics were presented by visit. […] The area under the concentration-time curve (AUC) was used for evaluating the parameters measured by oral glucose tolerance test. […]

The structures appear in SMILES notation.

With `CC(=O)Oc1cccc2c1C(=O)c1c(OC(C)=O)cc(C(=O)O)cc1C2=O` [diacerin, 4,5-bis(acetyloxy)-9,10-dioxo-2-anthracene carboxylic acid], the “HbA1c mean change from baseline, week 24” value was −0.63% in series [1] (All subjects (N=26) completing 24 weeks, diacerin 50 mg twice daily add-on); −0.82% in series [1] (Dyslipidemia subgroup (N=16), diacerin 50 mg twice daily, 24 weeks); −0.84% in series [1] (Hyper LDL-cholesterolemia subgroup (N=11), diacerin 50 mg twice daily, 24 weeks); −0.76% in series [1] (Hypercholesterolemia subgroup (N=7), diacerin 50 mg twice daily, 24 weeks); −0.89% in series [1] (Hypertriglyceridemia or hypercholesterolemia subgroup (N=14), diacerin 50 mg twice daily, 24 weeks); −0.83% in series [1] (Hypertriglyceridemia subgroup (N=11), diacerin 50 mg twice daily, 24 weeks). In addition, in series [1] (Normal lipid profiles subgroup (N=10), diacerin 50 mg twice daily, 24 weeks), the “HbA1c mean change from baseline, week 24” value is recorded as −0.30%. Besides, the “decrease of HbA1c levels compared with the placebo group” value in series [1] (after 24-week treatment, all subjects, p<0.05) was “about 0.63%”. The “patients whose HbA1c levels decreased by more than or equal to 0.5%” value in series [1] (diacerin group, 13 of 26 patients, 24 weeks) is given as 50%; in series [1] (dyslipidemia subgroup, 10 of 16 patients, 24 weeks) it was 62.5%; in series [1] (hypercholesterolemia subgroup, 4 of 7 patients, 24 weeks) it was 57.1%; in series [1] (hypertriglyceridemia or hypercholesterolemia subgroup, 10 of 14 patients, 24 weeks), 71.4%; in series [1] (hypertriglyceridemia subgroup, 7 of 11 patients, 24 weeks) it was 63.6%; in series [1] (normal plasma lipid profiles, 4 of 10 patients, 24 weeks), 40%. For the same compound, the “decrease of HbA1c levels compared with the baseline” value in series [1] (dyslipidemia subgroup, after 24-week treatment) is reported as “about 0.82%”; in series [1] (type 2 diabetic patients with normal lipid profile, after 24-week treatment), “about 0.30%”. Moreover, the “changes in body weight compared with the placebo group” value in series [2] is reported as “no significant changes”. For the same compound, the “changes in lipid profiles compared with the placebo group” value in series [2] was “no significant changes”.
